For data set [1], the system named is Human peripheral blood mononuclear (PBMC) cells. Put plainly: LPS-stimulated cytokine release from PBMC. To be noted: 16 h. Format: cell-based.
Data set [2] addresses T1, Fbxo3 (Homo sapiens, UniProt Q9UK99).
T1 sequence (Q9UK99 1-471): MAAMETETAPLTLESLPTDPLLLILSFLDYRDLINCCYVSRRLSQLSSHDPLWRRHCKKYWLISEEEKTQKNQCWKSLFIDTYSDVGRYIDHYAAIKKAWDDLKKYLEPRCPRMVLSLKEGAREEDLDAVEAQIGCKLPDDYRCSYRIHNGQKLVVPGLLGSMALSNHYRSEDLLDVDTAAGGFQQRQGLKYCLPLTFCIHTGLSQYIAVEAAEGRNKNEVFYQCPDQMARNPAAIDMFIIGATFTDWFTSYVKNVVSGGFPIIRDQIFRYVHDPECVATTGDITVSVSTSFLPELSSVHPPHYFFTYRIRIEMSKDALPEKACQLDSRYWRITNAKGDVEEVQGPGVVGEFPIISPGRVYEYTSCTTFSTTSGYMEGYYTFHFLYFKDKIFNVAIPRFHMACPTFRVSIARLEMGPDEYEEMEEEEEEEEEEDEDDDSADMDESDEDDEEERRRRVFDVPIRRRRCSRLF
Put plainly: Fbxo3/Fbxl2 protein interaction pull-down assay. Format: binding. To be noted: Fbxo3 beads from Hela cell lysates, 10^−11 to 10^−4 M tested.

The next data set has as its target SCF^Fbxo3 (Homo sapiens, UniProt Q9UK99). Put plainly: In vitro ubiquitin conjugation assay of Fbxl2. Format: biochemical.
Data set [3] has as its target T2, COX-2 (Mus musculus, UniProt Q05769).
T2 sequence (Q05769 18-604): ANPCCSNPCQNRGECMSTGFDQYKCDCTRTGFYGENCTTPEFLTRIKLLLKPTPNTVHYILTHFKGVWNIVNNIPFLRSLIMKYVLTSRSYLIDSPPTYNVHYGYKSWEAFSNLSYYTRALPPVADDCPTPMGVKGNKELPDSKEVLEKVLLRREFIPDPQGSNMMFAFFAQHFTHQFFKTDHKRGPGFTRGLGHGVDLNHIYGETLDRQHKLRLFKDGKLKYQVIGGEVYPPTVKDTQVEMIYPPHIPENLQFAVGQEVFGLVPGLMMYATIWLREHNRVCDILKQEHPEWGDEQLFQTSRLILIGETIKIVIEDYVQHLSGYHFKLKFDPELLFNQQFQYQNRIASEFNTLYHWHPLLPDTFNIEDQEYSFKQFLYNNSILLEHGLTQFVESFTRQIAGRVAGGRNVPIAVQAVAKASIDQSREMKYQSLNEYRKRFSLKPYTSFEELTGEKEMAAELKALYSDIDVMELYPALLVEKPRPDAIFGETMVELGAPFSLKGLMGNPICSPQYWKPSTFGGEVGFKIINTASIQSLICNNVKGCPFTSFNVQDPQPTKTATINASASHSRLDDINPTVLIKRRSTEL
Put plainly: COX-2 activity and COX-2 levels in MLE cells. It is filed as cell-based, murine. To be noted: 16 h.

In a further data set the test system is LPS-treated PBMC. Put plainly: Cytokine array of LPS-treated PBMC. It is filed as cell-based, human. To be noted: 10 µg/ml, LPS 2 µg/ml, 16 h.
Data set [4] relates to carrageenan-treated C57BL6 mice. Put plainly: Carrageenan paw edema model. It is filed as in vivo, mouse. To be noted: 100 µg i.p. daily, 48 h, versus vehicle. On the technique in general: The carrageenan paw model is a standard test of acute inflammation.
Data set [5] deals with C57BL6 mice challenged with H1N1 (A/PR/8/34). Put plainly: H1N1 influenza pneumonia model. Format: in vivo, mouse. To be noted: 30 µg/ml in drinking water.
Data set [6] concerns C57BL6 mice fed dextran sulfate sodium (DSS). Put plainly: DSS-induced colitis model. Format: in vivo, mouse. To be noted: 100 µg i.p. daily.
Data set [7] has as its system C57BL6 mice given TPA on ears. Put plainly: TPA-induced ear edema model. Format: in vivo, mouse. To be noted: topical 8, 40, 200 ug/ear, 18 h after TPA, versus vehicle.
A further data set has as its system bacterial growth. Put plainly: Kirby Bauer testing of bacterial growth. To be noted: data not shown.
Data set [8] is described as follows: Observation of treated animals across the inflammation models. Format: in vivo, mouse. To be noted: parenteral, oral, topical application.
The target of another data set is COX-1 (Homo sapiens, UniProt P23219). Put plainly: Purified enzyme activity assay, COX-1. To be noted: 10 µM, purified protein.
The target in data set [9] is T3, COX-2 (Homo sapiens, UniProt P35354).
T3 sequence (P35354 18-604): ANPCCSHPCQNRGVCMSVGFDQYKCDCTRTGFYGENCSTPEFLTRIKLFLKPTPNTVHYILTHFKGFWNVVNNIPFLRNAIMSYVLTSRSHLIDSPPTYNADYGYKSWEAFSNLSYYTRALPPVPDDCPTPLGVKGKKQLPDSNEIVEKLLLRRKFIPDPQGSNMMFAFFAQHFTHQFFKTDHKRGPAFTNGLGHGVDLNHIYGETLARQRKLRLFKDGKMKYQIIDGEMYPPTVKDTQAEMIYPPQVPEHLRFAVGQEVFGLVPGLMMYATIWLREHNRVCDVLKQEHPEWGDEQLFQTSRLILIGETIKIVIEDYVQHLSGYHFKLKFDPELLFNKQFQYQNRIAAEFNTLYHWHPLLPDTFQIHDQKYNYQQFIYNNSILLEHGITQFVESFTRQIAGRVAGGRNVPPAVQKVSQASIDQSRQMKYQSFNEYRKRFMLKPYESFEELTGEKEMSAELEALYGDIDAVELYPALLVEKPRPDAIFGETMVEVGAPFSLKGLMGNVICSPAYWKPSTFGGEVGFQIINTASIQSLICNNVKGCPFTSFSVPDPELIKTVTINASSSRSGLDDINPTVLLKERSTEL
Put plainly: Purified enzyme activity assay, COX-2. To be noted: 10 µM, purified protein.

A further data set has as its system LOX-1. Put plainly: Purified enzyme activity assay, LOX-1. To be noted: 10 µM, purified protein.
In data set [10] the test system is Murine lung epithelial (MLE) cells. Put plainly: Immunoblotting of Fbxl2, TRAFs and Fbxl2 substrates in MLE cells. In general terms: Immunoblotting shows a protein as a band on a membrane.
The next data set has as its system TRAF 1–6 in MLE cells. Put plainly: TRAF protein half-life. To be noted: different concentrations, 16 h.
Data set [11] concerns the target T1, Fbxo3. Put plainly: Reversibility of Fbxo3 inhibition by ultrafiltration and Fbxl2 pull-down. To be noted: 1 mg/ml, one or three rounds of ultrafiltration (3 kDa cutoff).

The term IC50 denotes the concentration that gives 50% inhibition.

Structures are written as SMILES. ≈ marks a conversion by molar mass, not a printed value.

COX-1, sequence (P23219 24-599): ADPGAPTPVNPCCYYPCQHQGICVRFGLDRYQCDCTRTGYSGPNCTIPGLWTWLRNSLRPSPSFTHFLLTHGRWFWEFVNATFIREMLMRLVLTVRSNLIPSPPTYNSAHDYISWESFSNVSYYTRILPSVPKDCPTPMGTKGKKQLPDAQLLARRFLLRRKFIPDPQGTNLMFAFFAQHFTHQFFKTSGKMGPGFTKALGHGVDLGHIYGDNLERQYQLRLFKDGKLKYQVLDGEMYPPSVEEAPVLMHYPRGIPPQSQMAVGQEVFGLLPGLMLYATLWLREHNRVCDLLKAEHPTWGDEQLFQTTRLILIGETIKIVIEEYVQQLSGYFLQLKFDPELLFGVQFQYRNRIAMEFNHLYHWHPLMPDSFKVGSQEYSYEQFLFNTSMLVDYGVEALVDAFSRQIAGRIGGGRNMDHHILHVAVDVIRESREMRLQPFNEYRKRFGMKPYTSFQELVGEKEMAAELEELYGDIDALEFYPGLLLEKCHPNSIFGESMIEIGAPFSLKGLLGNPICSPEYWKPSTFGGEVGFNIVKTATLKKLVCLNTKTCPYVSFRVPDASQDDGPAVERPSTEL
SCF^Fbxo3, sequence (Q13616 whole entry partner, one chain of several): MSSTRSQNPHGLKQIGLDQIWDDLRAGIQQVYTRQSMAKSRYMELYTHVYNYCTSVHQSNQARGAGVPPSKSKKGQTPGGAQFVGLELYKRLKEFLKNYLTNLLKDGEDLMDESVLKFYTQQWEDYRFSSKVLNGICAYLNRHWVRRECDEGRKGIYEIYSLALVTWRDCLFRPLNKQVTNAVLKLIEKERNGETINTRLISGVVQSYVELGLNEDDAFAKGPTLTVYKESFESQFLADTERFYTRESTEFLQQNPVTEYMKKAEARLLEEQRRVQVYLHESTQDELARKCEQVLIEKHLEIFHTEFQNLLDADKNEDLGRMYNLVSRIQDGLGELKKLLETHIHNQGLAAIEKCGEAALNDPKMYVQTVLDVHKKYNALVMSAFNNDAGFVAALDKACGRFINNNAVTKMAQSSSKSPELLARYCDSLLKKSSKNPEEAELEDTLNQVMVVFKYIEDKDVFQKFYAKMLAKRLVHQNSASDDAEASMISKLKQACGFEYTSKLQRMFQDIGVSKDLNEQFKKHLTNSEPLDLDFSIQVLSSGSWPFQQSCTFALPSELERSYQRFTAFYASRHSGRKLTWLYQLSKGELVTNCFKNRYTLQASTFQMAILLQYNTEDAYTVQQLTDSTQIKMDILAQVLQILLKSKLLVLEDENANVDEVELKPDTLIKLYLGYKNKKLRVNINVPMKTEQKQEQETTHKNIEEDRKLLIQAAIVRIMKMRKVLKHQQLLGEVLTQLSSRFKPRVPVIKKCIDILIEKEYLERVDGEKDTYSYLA
SCF^Fbxo3, sequence (P63208 whole entry partner, one chain of several): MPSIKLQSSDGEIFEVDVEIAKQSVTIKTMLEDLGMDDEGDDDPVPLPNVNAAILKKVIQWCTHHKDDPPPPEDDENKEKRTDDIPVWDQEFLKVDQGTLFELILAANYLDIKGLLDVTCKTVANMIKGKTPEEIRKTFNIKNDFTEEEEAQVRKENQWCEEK
SCF^Fbxo3, sequence (P62877 whole entry partner, one chain of several): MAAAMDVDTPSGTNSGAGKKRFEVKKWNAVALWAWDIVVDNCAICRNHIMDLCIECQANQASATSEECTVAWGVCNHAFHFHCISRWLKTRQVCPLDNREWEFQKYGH

In the case of `c1ccc(-c2ccc(CNCCNCc3ccc(-c4ccccn4)cc3)cc2)nc1` [BC-1215], the IC50 in [1] (Homo sapiens, read-out: IC50 for IL-1β) was 0.9 µg/mL (≈ 2.28 µM). Further, on Fbxo3 [2], the “concentration of maximal inhibitory binding (Fbxl2 pull-down by Fbxo3 beads)” value was 10^−7 M. The half-inhibitory concentration (IC50) against SCF^Fbxo3 is 100 nM. For the same compound, the “COX-2 activity in cells” value on COX-2 [3] (10 µg/ml, positive control DuP-697) is reported as “did not alter COX-2 activity”. Further, the “immunoreactive COX-2 levels” value at COX-2 [3] (different concentrations, immunoblotting) was “did not alter immunoreactive COX-2 levels”. Moreover, the “release of Th1 panel cytokines” value in the data set with LPS-treated PBMC was “remarkably suppressed the majority of the Th1 panel cytokines”. In data set [4], the “paw edema (volume)” value was “significantly reduce” and the paw thickness entry is “significantly reduce”. In addition, in data set [5], the lavage cell counts entry is “remarkably decreased” and the lavage protein concentration entry is listed as “remarkably decreased”. Further, in [5] (day 5, FlexiVent), the lung compliance result was “increased compliance” and the lung elastance entry was “reduced elastance”. For the same compound, the “pulmonary edema, hemorrhage and alveolar inflammation” value in data set [5] (gross images and H&E) was “lessened severity”. Moreover, the survival result in data set [5] (up to 9 d, versus diluent) is given as “significantly increased survival”. The colon length result in [6] (3.5% DSS five days, compared to control) is on record as “no significant decrease in colon length”. Besides, the “TRAF protein levels in colon tissue” value in [6] (immunoblotting) was “significant reduction of immunoreactive TRAF2 and TRAF4 content”. Moreover, in [6] (versus vehicle), the “IL1β level in colonic tissue” value is “large reduction”; the “TNFα level in colonic tissue” value is “large reduction”; the “colon histology (H&E and Alcian staining)” value is recorded as “significant restoration of colonic crypts with reappearance of goblet cells”. In [7], the ear thickness result is given as “significantly reduced” and the “ear weight (punch biopsy)” value was “significantly reduced”. Also, the “inhibition of bacterial growth” value in the data set with bacterial growth is listed as “modest inhibition of bacterial growth”. The “overt signs of distress in treated animals” value in data set [8] was “not observed to exhibit overt signs of distress”. Besides, the “inhibition of COX-1 enzymatic activity” value on COX-1 is “does not cause significant inhibitory effects”. Moreover, the “inhibition of COX-2 enzymatic activity” value against COX-2 [9] is listed as “does not cause significant inhibitory effects”. In the data set on LOX-1, the “inhibition of LOX-1 enzymatic activity” value was “does not cause significant inhibitory effects”. Also, in data set [10] (MLE cells co-treated with TNFα 10 ng/ml, 6 h), the “TNFα-induced TRAF2/TRAF3 up-regulation and p38, p-IKK activation” value is given as “suppress such effects in a dose-dependent manner”. In addition, the “levels of Fbxl2 substrates cyclin D2, cyclin D3 and CCT” value in data set [10] (MLE cells, 16 h, immunoblotting) is reported as “reduced”. The “immunoreactive Fbxl2 and TRAF protein levels” value in data set [10] (cells, range of concentrations, compared to benzathine control) was “increased immunoreactive Fbxl2 levels and reduced TRAF proteins”. For the same compound, the “TRAF steady-state mRNA levels” value in the data set on TRAF 1–6 in MLE cells is on record as “without altering TRAF steady-state mRNA levels”. Also, the “reversibility of Fbxo3 inhibition” value at Fbxo3 [11] was “reversible”.

Consider `c1ccc(CNCCNCc2ccccc2)cc1` [benzathine, reference compound], for which the “IC50 for IL-1β” value in data set [1] (LPS 2 µg/ml, ELISA) came out at 25 µg/mL.
